Data set [1] concerns MV 4-11 transplanted tumor. Kind of data set: Growth inhibition of MV 4-11 transplanted tumor in nude mice. Format: in vivo. The following applies: for inhibitory rate (growth of transplanted tumor): dose of 15 mpk, oral, daily; for tolerability in experimental animals / tumor inhibitory effect: higher doses, 50 mg/kg-100 mg/kg. The method, then: The tumor tissue in vigorous growth stage was cut into about 1.5 mm^3 and inoculated subcutaneously in the right armpit of nude mice under sterile conditions. The diameter of subcutaneous transplanted tumor in nude mice was measured with vernier caliper, and the animals were randomly divided into groups when the average tumor volume was about 130 mm^3. […] During the whole experiment, the diameter of the transplanted tumor was measured twice a week, and the weight of mice was weighed at the same time. The calculation formula of tumor volume (TV) was: TV=½×a×b^2, wherein a and b represent the length and width respectively. The relative tumor volume (RTV) was calculated according to the measurement results, and the calculation formula was: RTV=VT/v0. Wherein VO is the tumor volume measured during the administration in cage (i.e., d0), and Vt is the tumor volume at each measurement.

Data set [2] can be described thus: In vivo pharmacokinetics in beagle dogs. The following applies: dog, plasma, po, gavage, 10 mg/kg.
For another data set, the target named is T1, CYP2C19 (Homo sapiens, UniProt P33261).
T1 construct: human liver microsomes (final concentration was 0.2 mg/mL); from tissue; host or cells: human liver microsomes
In words: Direct inhibition test (DI test) in human liver microsomes, CYP2C19. Format: in vitro ADME. The following applies: read-out: inhibitory IC50 on CYP 2C19. The method, then:
(§1) (2) Direct inhibition test (DI test): 1004 of human liver microsomes (final concentration was 0.2 mg/mL) system was subjected to inhibition incubation directly, the system contains NADPH (final concentration was 1 mM), 10 μM compound, positive inhibitor cocktail (ketoconazole 10 μM, quinidine 10 μM, sulfapyrazole 100 μM, a-naphthoflavone 10 μM, tranylcypromine […]), negative control (0.1% DMSO BPS) and mixed probe substrate (midazolam 1004, testosterone 10004, dextromethorphan 10 μM, diclofenac 20 μM, phenacetin 100 μM, mephenytoin 100 μM), the reaction was terminated after incubation for 20 min. The relative enzyme activity was calculated by measuring the relative production of metabolites.
For orientation: Liver microsomes are vesicles of endoplasmic reticulum, rich in cytochrome P450 enzymes.

Another data set concerns the target T2, CYP1A2 (Homo sapiens, UniProt P05177).
T2 construct: human liver microsomes (final concentration was 0.2 mg/mL); from tissue; host or cells: human liver microsomes
T2 sequence (P05177 1-516): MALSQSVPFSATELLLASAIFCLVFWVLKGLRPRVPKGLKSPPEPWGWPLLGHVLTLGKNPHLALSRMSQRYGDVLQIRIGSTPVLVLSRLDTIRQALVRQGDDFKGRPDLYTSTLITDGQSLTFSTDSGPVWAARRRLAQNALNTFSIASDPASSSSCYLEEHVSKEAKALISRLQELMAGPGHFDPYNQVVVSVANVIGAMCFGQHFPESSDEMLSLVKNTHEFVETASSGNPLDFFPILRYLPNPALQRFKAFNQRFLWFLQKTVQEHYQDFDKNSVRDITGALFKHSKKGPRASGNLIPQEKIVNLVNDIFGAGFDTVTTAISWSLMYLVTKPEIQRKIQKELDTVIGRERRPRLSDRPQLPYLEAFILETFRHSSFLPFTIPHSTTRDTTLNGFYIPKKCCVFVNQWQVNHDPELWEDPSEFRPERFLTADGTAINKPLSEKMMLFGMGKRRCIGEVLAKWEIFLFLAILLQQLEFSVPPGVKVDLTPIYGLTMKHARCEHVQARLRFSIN
In words: Direct inhibition test (DI test) in human liver microsomes, CYP1A2. Format: in vitro ADME. As to conditions: read-out: inhibitory IC50 on CYP1A2. The method, then: as §1

In data set [3] the test system is most AML cell lines and prostate cancer cell lines. Kind of data set: Proliferation inhibition of different cell lines: AML and prostate cancer lines. Format: cell-based. The following applies: read-out: proliferation inhibitory activity IC50. The method, then: The proliferation inhibitory activity of some of the embodiment compounds against different cell lines such as LNCAP (+R1881), SKM-1, 22RV1, DU145, MOLM13, MDA-PCA-2b, KASUMI 1, THP-1, KG-1, IEC6, H1299, etc., was tested using similar methods in test embodiment 2 and in the literature.

For the next data set, the target named is T3, BRD4-BD2 (Homo sapiens, UniProt O60885).
T3 construct: purchased ReactionBiologyCorp; (RBC)
Kind of data set: BRD4 AlphaScreen determination (BD2). Format: binding. The method, then:
(1) 1× Assay buffer was prepared according to the kit requirements of ReactionBiologyCorp. (RBC). (2) Compound concentration gradient preparation: the test compounds were tested at final concentrations starting at 10 μM, with 10 concentrations at 3-fold dilution and single well test was set for each concentration. The positive control compound(+)-JQ-1 was tested at final concentrations starting at 1 μM, with 10 concentrations at 3-fold dilution, and duplicated well test was set for each concentration. The solution was gradient diluted to the corresponding 1000-fold final concentration in a 384-well Source plate, and then 20 nL of the solution was transferred to the 384-well reaction plate with Echo550 to be measured. 20 nL of 100% DMSO was transferred to the Max well, and the highest concentration of the positive compounds were transferred to the Min wells. […] (6) 5 μL of 4× peptide solution was added to each well of the reaction plate, centrifuged at 1000 rpm for 1 min. (7) 10 μL of the assay solution was added, centrifuged at 1000 rpm for 60 seconds, the solution was mixed with gentle shaking, and incubated at room temperature for 60 minutes. (8) Reading with EnVision. (9) The IC50 values of the compounds for protein binding inhibition was obtained by fitting the dose-effect curve with the analytical software GraphPad Prism 5. (See Table 1 for specific values)

A further data set relates to MV4-11 cells. In words: Inhibition of proliferation of MV4-11 cells (CellTiter-Glo). Format: cell-based. The following applies: Homo sapiens, 72 h. The protocol:
Specific experimental steps: 1) Day 0: 96 inoculated cells were digested with trypsin and suspended in cell culture medium, the cell density was detected by an automatic cell counter and the cells were diluted with the culture medium to a suitable density, 100 μL of cell suspension was added to the 96-well plate, and the cell-free medium was used as a control well, and the wells were incubated in a 37° C., 5% CO2 cell incubator overnight; 2) Day 1: A total of 8 concentrations of the compound to be tested in the drug-treated cells were tested at 3-fold dilution, 10 μM was the starting assay concentration of the compound to be tested. Specific steps: 200× compound mother liquor was prepared, the compound was diluted with culture medium to a final concentration of […], that is, 3 μL of 200× compound was added to 197 μL of culture medium, 50 μL diluted compound was added to each well of the 96-well plate, and placed at 37° C., 5% CO2 cell culture incubator for 72 h; 3) Day 4: Cell viability detection: 96-well cell plate was first equilibrated to room temperature, 40 μL of CellTiter-Glo® reagent was added to each well, mixed on a shaker for 2 minutes to fully lyse the cells, incubated at room temperature for 10 minutes to stabilize the luminescence signal, and the luminescence value was read by the Envision microplate reader; 4) data processing was performed by GraphPad Prism 5.0 software to analyze the data, and nonlinear S-curve regression was used to fit the data to obtain a dose-effect curve, and from which the ICso value was calculated. Inhibition rate %=(DMSO treated cell wells−compound treated cell wells)/(DMSO treated cell wells−cell free medium wells)×100. The ICso value was obtained by the four-parameter regression method using the random software in the microplate reader. (See Table 2 for specific values)
In general terms: Cellular ATP, detected with luciferase, serves as a proxy for viable cell number.

Each structure is given as a SMILES string. Read-outs that look alike come from different tables or passages of the source.

T1 sequence (P33261 whole entry): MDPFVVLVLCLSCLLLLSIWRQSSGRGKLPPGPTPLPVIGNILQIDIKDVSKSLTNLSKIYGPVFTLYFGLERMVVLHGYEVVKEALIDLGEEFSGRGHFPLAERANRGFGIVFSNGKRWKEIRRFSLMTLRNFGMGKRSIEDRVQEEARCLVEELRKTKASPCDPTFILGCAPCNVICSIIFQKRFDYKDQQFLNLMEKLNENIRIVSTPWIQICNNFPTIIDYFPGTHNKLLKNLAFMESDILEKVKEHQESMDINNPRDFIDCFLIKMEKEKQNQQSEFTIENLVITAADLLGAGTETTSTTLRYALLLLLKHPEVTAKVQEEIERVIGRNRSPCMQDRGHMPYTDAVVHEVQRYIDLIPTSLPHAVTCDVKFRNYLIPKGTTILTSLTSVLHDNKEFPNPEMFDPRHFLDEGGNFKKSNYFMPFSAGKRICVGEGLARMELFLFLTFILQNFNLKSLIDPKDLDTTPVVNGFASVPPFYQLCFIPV

What is called AUC is the area under the concentration-time curve, a measure of exposure. The Cmax is the maximum level reached in the sampled fluid or tissue. The half-life is the time in which the quantity being followed falls by half. Higher therefore signals slow decline. Regarding `CCNC(=O)c1cc2c(=O)n(C)cc(-c3cc(C(C)(C)O)ccc3Oc3c(C)cc(F)cc3C)c2[nH]1` [compound 1, reference compound], in data set [1], the “inhibitory rate (growth of transplanted tumor)” value came to 82%, the “tolerability in experimental animals” value is “tolerate it well” and the tumor inhibitory effect entry is given as “obvious”. In data set [2], this compound displayed an AUC above 15 µM·h, a maximum concentration (Cmax) of 2000 nM and a half-life above 2 h. Also, at CYP2C19, the IC50 was above 15000 nM. Moreover, on CYP1A2, the IC50 was above 15000 nM. In addition, the IC50 in data set [3] was below 1000 nM. Further, the IC50 against BRD4-BD2 came out at 0.65 nM. The same compound had an IC50 with MV4-11 cells of 2.3 nM.

Regarding `Cc1cc(F)cc(C)c1Oc1ccc(C(C)(C)O)cc1-c1cn(C)c(=O)c2cc(C(=O)NC3CC(F)(F)C3)[nH]c12` [Embodiment 18, N-(3,3-difluorocyclobutyl)-7-(2-(4-fluoro-2,6-dimethylphenoxy)-5-(2-hydroxyprop-2-yl)phenyl)-5-methyl-4-oxo-4,5-dihydro-1H-pyrrolo[3,2-c] pyridine-2-amide], in data set [1], the “inhibitory rate (growth of transplanted tumor)” value is listed as 82%, the “tolerability in experimental animals” value was “tolerate it well” and the tumor inhibitory effect entry is reported as “obvious”. Also, in data set [2], the exposure (AUC) is above 15 µM·h, the highest level (Cmax) was 2000 nM and the half-life was above 2 h. The IC50 at CYP2C19 is above 15000 nM. In addition, the IC50 at CYP1A2 was above 15000 nM. For the same compound, the IC50 in data set [3] was below 1000 nM. Further, the IC50 on BRD4-BD2 (AlphaScreen, protein binding inhibition, read-out: BRD4-BD2 IC50) is below 0.5 nM. The IC50 with MV4-11 cells was determined as 10.6 nM.
